{"source": "patent US20250250300A1", "about": "“COMPOSITIONS AND METHODS FOR TREATING PSEUDOMYXOMA PERITONEI” (UNIVERSITY OF SOUTH CAROLINA, priority 2024, published 2025)", "key": {"PMP501-1 cells [1]": {"test_system": "PMP501-1 cells", "experiment": "cell viability assay (crystal violet), PMP501-1", "assay_type": "cell-based, human", "settings": "for stimulation of proliferation: 33.3 μM (for 3)", "description": "(§1) To evaluate whether myxomapeptin is the major contributor to the PMP inhibition, 2 were assayed against two PMP cell lines (PMP501-1 and ABX023-1), human colorectal adenocarcinoma cells (HT-29), and human fetal intestinal epithelial cells (FHC) using crystal violet cell viability assay.\n(§2) Next, the modulatory effect of 3 and 4 on PMP, HT-29 and FHC cells was evaluated. […] Subsequently, the effect of 3 and 4 on the mitochondrial respiration of ABX023-1 cells was measure in the seahorse mitochondrial stress assay."}, "ABX023-1 cells [2]": {"test_system": "ABX023-1 cells", "experiment": "crystal violet cell viability assay, ABX023-1", "assay_type": "cell-based, human", "settings": "for stimulation of proliferation: 33.3 μM (for 3)", "description": "as §1, §2"}, "[3]": {"test_system": "human colorectal adenocarcinoma cells (HT-29)", "experiment": "cell viability assay (crystal violet), HT-29", "assay_type": "cell-based", "settings": "for effect on proliferation: 33.3 μM (for 3)", "description": "as §1, §2"}, "[4]": {"test_system": "human fetal intestinal epithelial cells (FHC)", "experiment": "crystal violet cell viability assay, FHC", "assay_type": "cell-based", "settings": "for effect on proliferation: 33.3 μM (for 3)", "description": "as §1, §2"}, "FHC cells [5]": {"test_system": "FHC cells", "experiment": "seahorse mitochondrial stress assay, FHC", "assay_type": "cell-based, human", "settings": "for mitochondrial respiration (normalized OCR and ECAR): normalized per 1,000 cells", "description": "(§3) FIG. 3C depicts seahorse mitochondrial stress assay of 2 and 5-FU (positive control) toward FHC cell lines, from which the normalized oxygen consumption rate (OCR) and normalized extracellular acidification rate (ECAR) were measured. The OCR was measured at baseline and in response to sequential injections of oligomycin (O), carbonyl cyanide-p-trifluoromethoxyphenyl-hydrazon (FCCP), and rotenone with antimycin (RA).\n(§4) As tumor cells requires larger energy supply that relies on mitochondrial respiration and glycolysis, we sought to explore the effect of myxomapeptins on PMP cell energy metabolism using seahorse mitochondrial stress assay. The normalized oxygen consumption rate (OCR; proportional to mitochondrial respiration) and normalized extracellular acidification rate (ECAR; proportional to glycolysis) were measured for PMP501-1 cells and FHC in the presence of 2, 5-fluorouracil (5-FU) or vehicle.\nas §2"}, "ABX023-1 cells [6]": {"test_system": "ABX023-1 cells", "experiment": "seahorse mitochondrial stress assay, ABX023-1", "assay_type": "cell-based, human", "settings": "15 μM (for 3), after FCCP supplementation", "description": "as §3, with “4C” for “3C”, “3” for “2”, “4” for “5-FU (positive control)”, “ABX023-1” for “FHC”\nas §2"}, "HT-29 cells [7]": {"test_system": "HT-29 cells", "experiment": "seahorse mitochondrial stress assay, HT-29", "assay_type": "cell-based, human"}, "PMP501-1 cells [8]": {"test_system": "PMP501-1 cells", "experiment": "seahorse mitochondrial stress assay, PMP501-1", "assay_type": "cell-based, human", "settings": "PMP501-1, normalized per 1,000 cells", "description": "as §3, with “3B” for “3C”, “PMP501-1cell” for “FHC cell”\nas §4"}, "[9]": {"settings": "reported; cited from earlier work"}, "PMP501-1 cells [10]": {"test_system": "PMP501-1 cells", "experiment": "cell uptake, LCMS of cell lysate, PMP501-1", "assay_type": "cell-based, human", "settings": "for ratio of compound in cell lysis versus control extracts: PMP501-1, compound fed, 5 days of incubation", "description": "(§5) Due to the inability of entering target cells passively, most cyclic lipopeptides are reported to perform biological functions by disrupting cell wall biosynthesis or the integrity of cell membranes. Given that myxomapeptins influence mitochondrial respiration and glycolysis, which occur in the cytoplasm, without wishing to be bound by theory, it was hypothesized that myxomapeptins are likely able to enter PMP cells. To this end, 2 was fed into the cultures of PMP501-1, ABX023-1, HT-29 and FHC cells with normalized cell density. After 5 days of incubation and a thorough wash, the cells were lysed and extracted by butanol for LCMS analysis. By calculating the ratio of 2 in cell lysis versus control extracts, 18.9% and 26.7% of 2 were found in the lysates of PMP501-1 and ABX023-1, whereas only 6.1% and 4.1% were detected from the lysates of HT-29 and FHC, respectively (FIG. 3A).\n(§6) Next, to study the percentage of myxomapeptins contributed by the intracellular PMP498-3 in light of the presence of PMP498-3 bacteria inside the PMP cells, the bacteria was co-cultured with the cell lines tested above."}, "ABX023-1 cells [11]": {"test_system": "ABX023-1 cells", "experiment": "cell uptake, LCMS of cell lysate, ABX023-1", "assay_type": "cell-based, human", "settings": "for ratio of compound in cell lysis versus control extracts: ABX023-1, compound fed, 5 days of incubation", "description": "as §5, §6"}, "HT-29 cells [12]": {"test_system": "HT-29 cells", "experiment": "cell uptake, LCMS of cell lysate, HT-29", "assay_type": "cell-based, human", "settings": "HT-29, compound fed, 5 days of incubation", "description": "as §5"}, "FHC cells [13]": {"test_system": "FHC cells", "experiment": "cell uptake, LCMS of cell lysate, FHC", "assay_type": "cell-based, human", "settings": "compound fed, 5 days of incubation", "description": "as §5"}, "[14]": {"experiment": "antimicrobial activity test", "assay_type": "cell-based", "settings": "64 μg/mL", "description": "Next, the absolute configuration of amino acid residues in 1 and 2 were determined by advanced Marfey's analysis after acid hydrolysis. After derivatization with (L)-and (D)-1-fluoro-2-4-dinitrophenyl-5-L-alanine amide (FDAA), the acid hydrolysate of 1 and 2 together with amino acid standards were analyzed by LCMS. […] Besides, the analysis allowed assignment of non-canonical amino acids as (2S,3R)-MeDap, (2R,4S)—Y—OH-Gln and (2S,3R)-B-Me-Glu in the structures of 1 and 2. Thus, the structures inclusive of absolute configuration of 1 and 2 are unambiguously assigned (FIG. 2C), and were named myxomapeptins A and B based on the source of the producing strain. Myxomapeptins are a new class of depsi cyclic lipopeptide consisting of eight amino acid residues that features N-methylation, C-methylation and hydroxylation, and a-proton epimerization."}}, "note": "*1 amine or outer side, *2 acyl side, *3 side chain or, on linkers, in order; H or OH if unused. Where a SMILES comes first, the peptide text is derived from it. Bridges are numbered along the chain shown (N, C = ends). [ ]: non-standard residue; d: D form. The star is where a group is joined. X2 = NC(=O)C[C@@H](O)[C@@H](N[*:1])C(=O)[*:2]; d(aThr) = C[C@@H](O)[C@@H](N)C(=O)O; NMeF = CN[C@@H](Cc1ccccc1)C(=O)O; X1 = CC[C@@H](C)CCCCCCCCCCC(=O)*; dNMeN = CN[C@H](CC(N)=O)C(=O)O"}
{"molecule": "O=C(O)/C=C/c1ccc(O)cc1", "note": "[Compound 3, p-coumaric acid]", "values": [{"measurement": "stimulation of proliferation", "setting": "PMP501-1 cells [1]", "value": "~20", "unit": "%"}, {"measurement": "stimulation of proliferation", "setting": "ABX023-1 cells [2]", "value": "~20", "unit": "%"}, {"measurement": "effect on proliferation", "setting": "[3]", "value": "no effect"}, {"measurement": "effect on proliferation", "setting": "[4]", "value": "no effect"}, {"measurement": "stimulatory effect on oxygen consumption", "setting": "FHC cells [5]", "value": "no substantial stimulatory effect"}, {"measurement": "increase of maximum respiratory capacity", "setting": "ABX023-1 cells [6]", "value": 25, "unit": "%"}, {"measurement": "stimulatory effect on oxygen consumption", "setting": "HT-29 cells [7]", "value": "no substantial stimulatory effect"}]}
{"molecule": "N[C@@H](Cc1ccc(O)cc1)C(=O)O", "note": "[Compound 4, L-tyrosine]", "values": [{"measurement": "stimulation of proliferation", "setting": "PMP501-1 cells [1]", "value": "no discernible effect"}, {"measurement": "stimulation of proliferation", "setting": "ABX023-1 cells [2]", "value": "no discernible effect"}, {"measurement": "effect on proliferation", "setting": "[3]", "value": "no discernible effect"}, {"measurement": "effect on proliferation", "setting": "[4]", "value": "no discernible effect"}, {"measurement": "increase of maximum respiratory capacity", "setting": "ABX023-1 cells [6]", "value": "do not have any effect"}]}
{"molecule": "O=c1[nH]cc(F)c(=O)[nH]1", "note": "[Compound 5-FU, 5-fluorouracil]", "values": [{"measurement": "mitochondrial respiration (normalized OCR and ECAR)", "setting": "PMP501-1 cells [8]", "value": "unselectively inhibited"}, {"measurement": "mitochondrial respiration (normalized OCR and ECAR)", "setting": "FHC cells [5]", "value": "unselectively inhibited"}]}
{"molecule": "CC[C@@H](C)CCCCCCCCCCC(=O)N[C@H]1C(=O)N[C@@H](CC(=O)O)C(=O)N[C@H](CO)C(=O)N[C@@H](CO)C(=O)N(C)[C@H](CC(N)=O)C(=O)N(C)[C@@H](Cc2ccccc2)C(=O)N[C@H]([C@H](O)CC(N)=O)C(=O)N[C@H](CCC(=O)O)C(=O)O[C@@H]1C", "note": "[Lipopeptin A, lipopeptin A] (X1-[d(aThr)]D[dS]S[dNMeN][NMeF][X2][dE]; ester 1-C)", "values": [{"measurement": "antibacterial and antifungal activities", "setting": "[9]", "value": "reported to possess antibacterial and antifungal activities"}]}
{"molecule": "CCCCCCCCCC(=O)N[C@@H](Cc1c[nH]c2ccccc12)C(=O)N[C@H](CC(N)=O)C(=O)N[C@@H](CC(=O)O)C(=O)N[C@@H]1C(=O)NCC(=O)N[C@@H](CCCN)C(=O)N[C@@H](CC(=O)O)C(=O)N[C@H](C)C(=O)N[C@@H](CC(=O)O)C(=O)NCC(=O)N[C@H](CO)C(=O)N[C@@H]([C@H](C)CC(=O)O)C(=O)N[C@@H](CC(=O)c2ccccc2N)C(=O)O[C@@H]1C", "note": "[daptomycin]", "values": [{"measurement": "ratio of compound in cell lysis versus control extracts", "setting": "PMP501-1 cells [10]", "value": "cannot be detected"}, {"measurement": "ratio of compound in cell lysis versus control extracts", "setting": "ABX023-1 cells [11]", "value": "cannot be detected"}, {"measurement": "ratio of compound in cell lysis versus control extracts", "setting": "HT-29 cells [12]", "value": "cannot be detected"}, {"measurement": "ratio of compound in cell lysis versus control extracts", "setting": "FHC cells [13]", "value": "cannot be detected"}]}
{"molecule": "myxomapeptin A [Compound 1]", "values": [{"measurement": "antimicrobial activity", "setting": "[14]", "value": "no antimicrobial activity"}]}
{"molecule": "myxomapeptin B [Compound 2]", "values": [{"measurement": "IC50", "setting": "PMP501-1 cells [1]", "value": 23, "unit": "µM"}, {"measurement": "IC50", "setting": "ABX023-1 cells [2]", "value": 33.7, "unit": "µM"}, {"measurement": "IC50", "setting": "[3]", "value": "> 100", "unit": "µM"}, {"measurement": "IC50", "setting": "[4]", "value": "> 100", "unit": "µM"}, {"measurement": "mitochondrial respiration (normalized OCR and ECAR)", "setting": "PMP501-1 cells [8]", "value": "strongly inhibits"}, {"measurement": "mitochondrial respiration (normalized OCR and ECAR)", "setting": "FHC cells [5]", "value": "not observed"}, {"measurement": "ratio of compound in cell lysis versus control extracts", "setting": "PMP501-1 cells [10]", "value": 18.9, "unit": "%"}, {"measurement": "percentage of 2 found in cell lysate", "setting": "PMP501-1 cells [10]; PMP501-1 co-cultured with PMP498-3 bacteria", "value": 22.5, "unit": "%"}, {"measurement": "ratio of compound in cell lysis versus control extracts", "setting": "ABX023-1 cells [11]", "value": 26.7, "unit": "%"}, {"measurement": "percentage of 2 found in cell lysate", "setting": "ABX023-1 cells [11]; ABX023-1 co-cultured with PMP498-3 bacteria", "value": 30.2, "unit": "%"}, {"measurement": "ratio of compound in cell lysis versus control extracts", "setting": "HT-29 cells [12]", "value": 6.1, "unit": "%"}, {"measurement": "ratio of compound in cell lysis versus control extracts", "setting": "FHC cells [13]", "value": 4.1, "unit": "%"}, {"measurement": "antimicrobial activity", "setting": "[14]", "value": "no antimicrobial activity"}]}
{"molecule": "neopeptin", "values": [{"measurement": "antibacterial and antifungal activities", "setting": "[9]", "value": "reported to possess antibacterial and antifungal activities"}]}
